This is an account of results in patent US20050163773A1, “Methods and pharmaceutical compositions for dopaminergic modulation of t-cell adhesion and activity” (priority 2001, published 2005).

“Also recorded” adds a separate entry of the source. A value given as a limit tells only on which side of the number the result lay.

The subject of one data set is TNFα secretion. The data set can be described thus: TNFα secretion by human peripheral T-cells (sandwich ELISA). Format: cell-based.
Text: (§1) The results are expressed as pg/ml.
(§2) The results are expressed as pg/mi.
as §1, §1, §1
Background: In an ELISA, binding on a coated surface is turned into a signal by an enzyme label.

Data set [1] concerns Dopamine receptors on normal human T-cells. The following applies: for blocking of DPAT-induced T-cell adhesion to fibronectin: DPAT 10 nM.
Procedure: Non-radioactive assessment of T-cell binding was performed as described in Material and Methods, results presented as the mean ±OD of bound T-cells from 4-6 wells.
The treated cells were suspended in adhesion medium and incubated (30 min., 37° C.) in a humidified 10% CO2 incubator. The cells were seeded in the fibronectin-coated microtiter plates, and the plates were then returned to the incubator for an additional 30 min. incubation. The amount of T-cell adhesion was determined as above.
Data set [2] concerns normal human peripheral T-cells. The following applies: Dopamine 10^−8 M, 48 hours.
A further data set relates to IL-4 secretion. The following applies: Dopamine 10^−8 M, 24 hours.
Data set [3] deals with IL-10 secretion. The data set can be described thus: IL-10 secretion by human peripheral T-cells (sandwich ELISA). Format: cell-based. The following applies: for inhibition of Dopamine-induced IL-10 secretion by receptor-specific antagonists: L-741,626 10^−7 M, U-Mal 10^−6 M, L-741,741 10^−6 M.
Text: The results are expressed as pg/ml IL-10. […] Immunostaining is with intracellular anti-IL-10 FITC conjugated (FL-1) and anti-CD4 PE conjugated (FL-2) antibodies, as described in Materials and Methods hereinbelow.
as §2, §1, §1, §1

Another data set deals with normal human T-cells. Description: T-cell adhesion assay (adhesion of human T-cells to fibronectin). The following applies: dose dependence, human T-cells.
The test system of data set [4] is normal human peripheral T-cells.
Data set [5] deals with IL-10 secretion. The following applies: Dopamine 10^−8 M, 72 hours.
The subject of data set [6] is SJL/J anti PLP 139-151 T-cells. The data set can be described thus: Experimental autoimmune encephalomyelitis (EAE) induced by encephalitogenic T-cells treated ex vivo. In kind it is in vivo, mouse. The following applies: U-Mal 10^−7 M, 5 minutes before DPAT.
Data set [7] concerns oxazalone-sensitized T-cells. The data set can be described thus: Passively transferred delayed type hypersensitivity (DTH) with T-cells treated ex vivo. Format: in vivo, mouse. The procedure:
Lymph nodes were removed from oxazalone-sensitized mice, and the T-cell suspension was exposed ex-vivo to increasing concentrations of DPAT (FIG. 9A, DPAT […]-DPAT 10^−6M) as described for FIG. 8 hereinabove. Control T-cells were incubated with medium only (untreated T-cells). The T-cells were then washed, resuspended in PBS and injected intravenously into naive syngeneic mice. The ears of the recipient mice were than challenged with oxazalone, and the degree of ear swelling was measured by micrometer 24 hr later. DTH is expressed as the mean ±SD of ear swelling in units of 10^−2 mm. […] Oxazalone-sensitized T-cells were incubated ex vivo for one hour with either DPAT (10^−8 M, +DPAT) or U-Mal (10^−7 M, +U-Mal), or both. The T-cells were then washed, resuspended in PBS, injected intravenously into normal recipients, and DTH measured as described hereinabove. […] FIGS. 9A and 9B represent two individual experiments, each experimental group consisting of 8 mice.
Passively transferred delayed type hypersenisitivity (DTH): Groups of 6-8 BALB/c female mice (The Jackson Laboratory, Bar Harbor, Mass., USA) were sensitized on the abdominal skin with 200 μt of 2% oxazalone dissolved in acetone/olive oil [4:1 vol/vol)] applied topically. Five days later, lymph nodes were removed from the sensitized mice, and a cell suspension prepared. The cells (3-5×10^6/ml in RPMI, no additional supplements) were than added for […] incubation ([…]. 37° C., 10% CO2 humidified incubator) with either DPAT, U-Mal, or both (in the latter combination the antagonist added 5 minutes before the agonist). The cells were than washed, resuspended in PBS, and injected IV (40×10^6 /mouse) into normal BALB/c recipients. Immediately afterwards the recipient mice were […] with 10 μl of 2% oxazalone in acetone/olive oil, applied topically to each side of the ear. A constant area of the ear was measured immediately before challenge and 24 hr after the challenge with a Mitutoyo engineer's micrometer. The individual measuring the ear swelling was unaware of the identity of the mice groups. The DTH reaction is expressed as the mean±SD (for each group) of the increment of ear swelling 24 hours after inoculation of the oxazalone-sensitized T-cells, in units of 10^−2 mm.

For another data set, the system named is α4β1 and α5β1 integrins. The data set can be described thus: Inhibition of induced T-cell adhesion to fibronectin with specific integrin blockers. In kind it is cell-based, human. The following applies: for blocking of DPAT-induced T-cell adhesion to fibronectin by integrin blockers: DPAT 10 nM; for blocking of DPAT-induced T-cell adhesion to fibronectin by integrin blockers / blocking of Dopamine-induced T-cell adhesion to fibronectin by integrin blockers: mAbs 15-25 μg/ml, peptides 50 μg/ml; for blocking of Dopamine-induced T-cell adhesion to fibronectin by integrin blockers: Dopamine 10 nM; for inhibition of PMA-induced T-cell adhesion to fibronectin by integrin blockers: PMA as positive control. The method, then:
The results are presented as the mean ±SD CPM of bound T-cells from quadruplicate wells. One experiment, representative of two, is presented for each of the three inducers of T-cell binding.
The treated cells were seeded in fibronectin-coated microtiter plates.

On to `Oc1cc2c(cc1O)C(c1ccccc1)CNCC2` (centres unmarked) [SKF 38393], for which the “induction of TNFα secretion by receptor-specific Dopamine agonists” value with TNFα secretion (agonist 10^−7 M, 24 hours) is given as “induced by D1”.

On to `CC(C)(C)[C@]1(O)CCN2C[C@H]3c4ccccc4CCc4cccc(c43)[C@@H]2C1` [Butaclamol], for which the “blocking of DPAT-induced T-cell adhesion to fibronectin” value in data set [1] was “without effect”.

As for `NCCc1ccc(O)c(O)c1` [Dopamine], the “increase in the number of IL-10 producing T-helper cells” value in [2] came to 9%. In the data set with TNFα secretion (24 hours), the “Dopamine concentration inducing maximal TNFα secretion” value is recorded as 10^−4 M and the “Dopamine concentration with significant effect on TNFα secretion” value is listed as ≥ 10^−8 M. Also, the “TNFα secretion at excess Dopamine” value in the data set with TNFα secretion (Dopamine 10^−3 M) is given as “drastic reduction in cytokine secretion”. Also, the TNF-α release entry in the data set on TNFα secretion (Dopamine 10^−8 M, 24 hours, no antigen stimulation) is recorded as “induced a strong release of TNF-α”. Besides, the IL-4 secretion entry in the data set with IL-4 secretion was “but not IFN-γ (FIG. 11B) or IL-4”. For the same compound, in the data set with IL-10 secretion [3] (72 hours), the “Dopamine concentration inducing maximal IL-10 secretion” value is on record as 10^−4 M and the “Dopamine concentration with significant effect on IL-10 secretion” value is ≥ 10^−8 M. Also, the “increase in IL-10 secretion” value in the data set with IL-10 secretion [3] (Dopamine 10 nM, 72 hours) was determined as 2.5 fold. Further, the “IL-10 secretion at excess Dopamine” value in the data set with IL-10 secretion [3] (Dopamine 10^−3 M) is given as “drastic reduction in cytokine secretion”. The “time of maximal IL-10 secretion” value in the data set with IL-10 secretion [3] (Dopamine 10^−8 M) turned out to be 72 h. Moreover, the IL-10 release result with IL-10 secretion [3] (Dopamine 10^−8 M, 72 hours, no antigen stimulation) is “induced a strong release of IL-10”. Further, the “optimum concentration for induction of T-cell adhesion to fibronectin” value in the data set with normal human T-cells is given as 10 nM. In [4], the “cellular death in normal T-cells” value is recorded as “induces cellular death”. Also, the “r-RNA bands in total RNA (loss of viability)” value in [4] (Dopamine 10^−3) was “near total absence of r-RNA bands”. For the same compound, in the data set with IL-10 secretion [5], the “IL-10 secretion, cloned resting Th0 cells” value is “strong induction”; the “IL-10 secretion, cloned resting Th1 cells ("forbidden" cytokine)” value is “secreting significant amounts of IL-10”; the “IL-10 secretion, cloned resting Th2 cells” value is recorded as “strong induction”.

Take `CCCN(CCC)C1Cc2cc(OC)c(OC)cc2C1.O=C(O)/C=C\C(=O)O` [U-Mal, U-99194A maleate]: the “effect of pre-treatment on the DPAT suppressive effect in EAE” value in [6] is listed as “prevented”. Also, in the data set with TNFα secretion (Dopamine 10^−8 M, 24 hours, L-741,626 10^−7 M, U-Mal 10^−6 M, L-741,741 10^−6 M), the “inhibition of Dopamine-induced TNFα secretion by receptor-specific antagonists” value is listed as “inhibited by D3”. In addition, the “effect on DTH by itself” value in data set [7] (U-Mal 10^−7 M alone) was “no effect by itself”. For the same compound, in data set [7] (U-Mal 10^−7 M, 5 minutes before DPAT 10^−8 M), the “effect of pre-treatment on DPAT suppression of DTH” value is recorded as “near total block of protection; also recorded: prevented”. In addition, the “blocking of DPAT-induced T-cell adhesion to fibronectin” value in data set [1] was “succeeded in blocking”. Moreover, the “independent effect on T-cell adhesion to fibronectin” value in data set [1] (antagonist alone, data not shown) is listed as “no independent effect”. Besides, the “toxic effects on the human T-cells” value in data set [1] (data not shown) was “no toxic effects”. Also, the “inhibition of Dopamine-induced IL-10 secretion by receptor-specific antagonists” value in the data set on IL-10 secretion [3] (Dopamine 10^−8 M, 72 hours) is “inhibited by the D2 and D3”.

On to “gly-arg-gly-glu-ser (GRGESP) [RGE-containing peptide, non-relevant RGE-containing control peptide]”, for which, in the data set with α4β1 and α5β1 integrins, the “blocking of DPAT-induced T-cell adhesion to fibronectin by integrin blockers” value is reported as “No significant effect”, the “blocking of Dopamine-induced T-cell adhesion to fibronectin by integrin blockers” value is “No significant effect” and the “inhibition of PMA-induced T-cell adhesion to fibronectin by integrin blockers” value is listed as “insensitivity”.

Regarding `OC1(c2ccc(Cl)cc2)CCN(Cc2c[nH]c3ccccc23)CC1` [L-741,626], the “inhibition of Dopamine-induced IL-10 secretion by receptor-specific antagonists” value in the data set on IL-10 secretion [3] (Dopamine 10^−8 M, 72 hours) was “inhibited by the D2”.

For “gly-arg-gly-asp-ser (GRGDS) [RGD peptide]”, in the data set with α4β1 and α5β1 integrins, the “blocking of DPAT-induced T-cell adhesion to fibronectin by integrin blockers” value is “effectively blocked”, the “blocking of Dopamine-induced T-cell adhesion to fibronectin by integrin blockers” value was “effectively blocked” and the “inhibition of PMA-induced T-cell adhesion to fibronectin by integrin blockers” value is listed as “inhibition”.
